The values below come from patent US10083341B2, “Cellular activity quantification using labeled probes” (Oregon Health & Science University, priority 2014, dated 2018).

What is called IC50 is the midpoint of a concentration-inhibition curve. Low readings indicate inhibition by little substance, high ones a need for much substance.

Entries after “also recorded” stand apart in the source; their conditions may differ. Like-named read-outs stand apart in the source and are kept apart here.

One test concerns MOLM-14 cells. Put plainly: Inhibitory concentrations (IC50, IC12.5) of kinase inhibitor panel for MOLM-14 cells. It is filed as cell-based, human. The note with it: concentration used for 48 h treatment.
For test [1], the system named is pCRKL. Nature of the test: SC-QDP discrete QD counting of pCRKL in K562 cells. It is filed as cell-based, human. The following applies: pCRKL level divided by isotype control, untreated 11.4. As to the method:
(§1) Cell culture and kinase inhibitor treatment. Primary mononuclear cells (MNCs) were isolated from peripheral blood or bone marrow of newly diagnosed, untreated patients with chronic phase CML. MNCs were isolated by centrifugation through a Ficoll gradient, and red blood cells were lysed with 1×ACK (0.15 M NH4Cl, 10 mM KHCO3, 0.1 mM EDTA). MNCs were grown in serum-free media consisting of IMDM supplemented with 20% BIT (Stem Cell Technologies), 40 μg/ml low-density lipoprotein (Sigma-Aldrich), 10^-6 M β-mercaptoethanol, and the following cytokines: 100 ng/ml SCF (Stem Cell Technologies), 100 ng/ml G-CSF, 20 ng/ml FLT3 ligand, 20 ng/ml IL-3, and 20 ng/ml IL-6 (Sigma-Aldrich). MNCs were grown at a density of 5×10^5 cells/ml at 37° C., 5% CO2, overnight in a humidified incubator before drug treatment. […]
(§2) SC-QDP image acquisition. Cells were imaged with an inverted fluorescent microscope (Zeiss AxioObserver) equipped with high magnification objectives, QD filter sets (Semrock), and a Luca-R camera (Andor) suitable for detecting discrete QD fluorescence. […]
(§3) SC-QDP discrete QD counts in single cells. Levels of phosphoprotein activity were quantified in single cells using automated software imaging algorithms. […]

The test system of test [2] is pCRKL. Put plainly: SC-QDP pCRKL in single CD34+ cells from CML patients. It is filed as cell-based, human. The note with it: dasatinib 100 nM, 4 h. As to the method: (§4) Cell culture and kinase inhibitor treatment. Primary mononuclear cells (MNCs) were isolated from peripheral blood or bone marrow of newly diagnosed, untreated patients with chronic phase CML. MNCs were isolated by centrifugation through a Ficoll gradient, and red blood cells were lysed with 1×ACK (0.15 M NH4Cl, 10 mM KHCO3, 0.1 mM EDTA). MNCs were grown in serum-free media consisting of IMDM supplemented with 20% BIT (Stem Cell Technologies), 40 μg/ml low-density lipoprotein (Sigma-Aldrich), 10^-6 M β-mercaptoethanol, and the following cytokines: 100 ng/ml SCF (Stem Cell Technologies), 100 ng/ml G-CSF, 20 ng/ml FLT3 ligand, 20 ng/ml IL-3, and 20 ng/ml IL-6 (Sigma-Aldrich). MNCs were grown at a density of 5×10^5 cells/ml at 37° C., 5% CO2, overnight in a humidified incubator before drug treatment. The CML (K562) and AML (MOLM-14) cell lines were grown in suspension culture, in RPMI with 10% fetal bovine serum (Invitrogen), 1% L-glutamine (100 mM), and 1% penicillin/streptomycin (100 μg/ml), in a humidified incubator at 37° C., 5% CO2.
K562 cells and MNCs were treated for 4 h with dasatinib, at a concentration of 100 nM unless otherwise specified. […].
(§5) SC-QDP phosphoprotein labeling. Cells were fixed, permeabilized and dispersed onto cover glass chambers (Lab-Tek; Nunc), or custom-made, multi-well cover glass chambers for high throughput assays. The cells in each well were blocked and treated with primary anti-phosphoprotein antibodies (pCRKL, pSTAT5, pSTAT3, pERK1/2, pAKT473; Cell Signaling Technology). The anti-CD34 antibody (Dako, USA) was used for selection of CD34+ primitive cells. […]
as §2, §3

For test [3], the system named is pCRKL. Nature of the test: QD total (diffuse) fluorescence quantification of pCRKL in K562 cells. It is filed as cell-based, human. The following applies: dasatinib-treated, untreated 1.1. As to the method:
as §1, §2
Measurements of single-cell total fluorescence of QD and Alexa dyes were obtained for each cell by summing pixel values from all slices in a single z-stack corresponding to each cell and subtracting the global background value for each field of view from the image. […]

A further test relates to pSTAT5. Nature of the test: SC-QDP pSTAT5 in single CD34+ cells from CML patients. It is filed as cell-based, human. The note with it: five CML patients, dasatinib 100 nM, 4 h. As to the method:
as §1, §2, §3

Another test has as its system pAKT. The note with it: MOLM-14 cells, 48 h. As to the method: as §4
(§6) K562 cells and MNCs were treated for 4 h with dasatinib, at a concentration of 100 nM unless otherwise specified.
(§7) SC-QDP phosphoprotein labeling. Cells were fixed, permeabilized and dispersed onto cover glass chambers (Lab-Tek; Nunc), or custom-made, multi-well cover glass chambers for high throughput assays. The cells in each well were blocked and treated with primary anti-phosphoprotein antibodies (pCRKL, pSTAT5, pSTAT3, pERK1/2, pAKT473; Cell Signaling Technology). The anti-CD34 antibody (Dako, USA) was used for selection of CD34+ primitive cells. […] After cells were incubated with secondary antibodies, they were washed in buffer solution and imaged.
(§8) SC-QDP image acquisition. Cells were imaged with an inverted fluorescent microscope (Zeiss AxioObserver) equipped with high magnification objectives, QD filter sets (Semrock), and a Luca-R camera (Andor) suitable for detecting discrete QD fluorescence. Data acquisition consisted of acquiring multiple fields of view randomly for each well of the multi-well chamber. The microscope was controlled by Micromanager (www.micro-manager.org/). […] Image acquisition was performed manually or by automated high-throughput scanning. For automated high-throughput scanning, a custom-written Java plugin for Micromanager was used that allows scanning of user-selected wells as well as random or user-selected areas within each well for DIC, and appropriate multiple quantum dot (QD) channels. The Java plugin also corrected slide tilt by determining the slide focal plane. Image focus at each well was verified and corrected manually if needed.
(§9) SC-QDP discrete QD counts in single cells. Levels of phosphoprotein activity were quantified in single cells using automated software imaging algorithms. Cell segmentation was first done manually and then was optimized for speed using an automated procedure. Automated cell segmentation comprised detecting the nucleus and plasma membrane using a threshold-based intensity algorithm and a membrane expansion cell segmentation algorithm (www.cellprofiler.org) of each cell. Discrete QD fluorescence was detected, localized and tabulated on a per cell basis using automated algorithms written in MATLAB (Matlab). Briefly, detection of discrete QD probes was accomplished in single-cell z-stacks by applying a spatial bandpass filter, detecting localized maxima, and calculating the position of each QD for each z-slice. […] The output of these automated algorithms comprised total counts of detected and localized discrete QD fluorescent puncta in each single cell z-stack.

The test system of the next test is pERK. The note with it: MOLM-14 cells, 48 h. As to the method:
as §4, §6, §7, §8, §9

Test [4] concerns pCRKL, pSTAT5, and pSTAT3. Nature of the test: SC-QDP baseline phosphoheterogeneity of K562 cells after cell cycle synchronization. It is filed as cell-based, human. The note with it: lovastatin-induced cell cycle synchronization, data not shown.
Source text: as §5, §2
SC-QDP discrete QD counts in single cells. Levels of phosphoprotein activity were quantified in single cells using automated software imaging algorithms. […] Discrete QD fluorescence was detected, localized and tabulated on a per cell basis using automated algorithms written in MATLAB (Matlab). […] The output of these automated algorithms comprised total counts of detected and localized discrete QD fluorescent puncta in each single cell z-stack. […] The QDs were identified as discrete, non-aggregated units comprised of single or a few QDs, as confirmed by intensity profile measurements of QD fluorescence. […]

`Cc1ccc(Nc2nccc(N(C)c3ccc4c(C)n(C)nc4c3)n2)cc1S(N)(=O)=O` [pazopanib]: in the test with MOLM-14 cells (Homo sapiens), the IC12.5 is 0.5 µM and 2 µM corresponded to half-maximal inhibition (IC50).

As for `CNC(=O)c1cc(Oc2ccc(NC(=O)Nc3ccc(Cl)c(C(F)(F)F)c3)cc2)ccn1` [sorafenib], half-maximal inhibition with MOLM-14 cells (Homo sapiens) (IC50) was put at 0.008 µM. The molecule further showed an IC12.5 with MOLM-14 cells of 0.002 µM.

Consider `Cc1nc(Nc2ncc(C(=O)Nc3c(C)cccc3Cl)s2)cc(N2CCN(CCO)CC2)n1` [dasatinib], for which the “pCRKL activity S/N ratio by QD counting” value with pCRKL [1] (dasatinib 10 nM) is recorded as 4.7; in the test on pCRKL [1] (dasatinib 100 nM), 2.3. Besides, in the test on pCRKL [2] (CD34+ cells of five CML patients), the “pCRKL inhibition (shift in peak of PDE curve)” value was about 1.8 fold. Besides, in the test on pCRKL [2] (five CML patients), the “frequency of dasatinib-resistant CD34+ cells, alternative threshold (pCRKL greater than mean untreated − 0.5σ untreated)” value was 8.5-53.9%. In addition, the “frequency of dasatinib-resistant CD34+ cells (pCRKL equal to or greater than mean of untreated CD34+ cells)” value in the test on pCRKL [2] (five CML patients, of total dasatinib-treated cell population) is 5.4-9.9%. In the test on MOLM-14 cells (Homo sapiens), this molecule returned an IC50 of 0.4 µM. The same molecule had an IC12.5 in the test with MOLM-14 cells of 0.1 µM. Further, the “pCRKL S/N ratio by QD total fluorescence” value in the test on pCRKL [3] came out at 1.7. Also, the “resistant CD34+ cell population (pSTAT5 greater than mean pSTAT5 of untreated CD34+ cells)” value in the test with pSTAT5 is recorded as 17-37%.

In the test on MOLM-14 cells (Homo sapiens), `COc1cc2c(Nc3ccc(Br)cc3F)ncnc2cc1OCC1CCN(C)CC1` [vandetanib] returned an IC12.5 of 0.9 µM and a concentration for half-maximal inhibition (IC50) of 3.6 µM.

In turn, `C#Cc1cccc(Nc2ncnc3cc(OCCOC)c(OCCOC)cc23)c1` [erlotinib] had an IC12.5 in the test on MOLM-14 cells (Homo sapiens) of 1.75 µM. This molecule had an IC50 in the test on MOLM-14 cells (Homo sapiens) of 7 µM. Also, the “overall shift of pAKT PDE curve” value in the test with pAKT is recorded as “left-shift”. The pAKT phosphoresponse entry with pAKT (at IC12.5) is recorded as “phosphoinhibition; also recorded: inhibition of pAKT”; with pAKT (at IC50), “phosphoactivation; also recorded: pAKT activation”. Moreover, the “overall shift of pERK PDE curve” value with pERK is on record as “left-shift”. In addition, in the test with pERK (IC50 concentration (FIG. 5C legend)), the “percentage of resistant cells (pERK equal to or greater than mean pERK of untreated cells)” value turned out to be 36%. Besides, the pERK phosphoresponse result is on record as “phosphoinhibition” in the test with pERK (at IC12.5) and “phosphoactivation” in the test with pERK (at IC50).

The molecule `COc1cc2ncnc(Nc3ccc(F)c(Cl)c3)c2cc1OCCCN1CCOCC1` [gefitinib] displayed an IC12.5 in the test with MOLM-14 cells (Homo sapiens) of 2.25 µM.

The molecule `CO[C@H]1C[C@@H]2CC[C@@H](C)[C@@](O)(O2)C(=O)C(=O)N2CCCC[C@H]2C(=O)O[C@H]([C@H](C)C[C@@H]2CC[C@@H](O)[C@H](OC)C2)CC(=O)[C@H](C)/C=C(\C)[C@@H](O)[C@@H](OC)C(=O)[C@H](C)C[C@H](C)/C=C/C=C/C=C/1C` [rapamycin] displayed an IC50 in the test on MOLM-14 cells (Homo sapiens) of 0.02 µM. The IC12.5 with MOLM-14 cells was 0.005 µM.

`N#CC[C@H](C1CCCC1)n1cc(-c2ncnc3[nH]ccc23)cn1` [ruxolitinib]: in the test on MOLM-14 cells (Homo sapiens), the IC12.5 came out at 2.5 µM and the 50% inhibitory concentration (IC50) is 10 µM.

On to `CNC(=O)c1ccccc1Sc1ccc2c(/C=C/c3ccccn3)n[nH]c2c1` [axitinib], for which, in the test with MOLM-14 cells, the IC12.5 amounted to 0.025 µM.

In the test on MOLM-14 cells (Homo sapiens), `CS(=O)(=O)CCNCc1ccc(-c2ccc3ncnc(Nc4ccc(OCc5cccc(F)c5)c(Cl)c4)c3c2)o1` [lapatinib] returned an IC12.5 of 2.25 µM and an IC50 of 9 µM.

`CC[C@H](C)C(=O)O[C@H]1C[C@@H](C)C=C2C=C[C@H](C)[C@H](CC[C@@H]3C[C@@H](O)CC(=O)O3)[C@H]21` [lovastatin]: the baseline phosphoheterogeneity result in test [4] is listed as “reduced this heterogeneity”.

As for `Cc1ccc(C(=O)Nc2ccc(CN3CCN(C)CC3)c(C(F)(F)F)c2)cc1C#Cc1cnc2cccnn12` [ponatinib], the half-inhibitory concentration (IC50) with MOLM-14 cells (Homo sapiens) worked out at 0.004 µM. The molecule also had an IC12.5 in the test with MOLM-14 cells of 0.001 µM.

`CCN(CC)CCNC(=O)c1c(C)[nH]c(/C=C2\C(=O)Nc3ccc(F)cc32)c1C` [sunitinib] had an IC50 in the test on MOLM-14 cells (Homo sapiens) of 0.012 µM. Besides, the IC12.5 in the test with MOLM-14 cells amounted to 0.003 µM.

In the test on MOLM-14 cells (Homo sapiens), `C=CC(=O)N1CCC[C@@H](n2nc(-c3ccc(Oc4ccccc4)cc3)c3c(N)ncnc32)C1` [ibrutinib] showed an IC12.5 of 0.4 µM and a half-inhibitory concentration (IC50) of 1.6 µM.

Regarding `Cc1cn(-c2cc(NC(=O)c3ccc(C)c(Nc4nccc(-c5cccnc5)n4)c3)cc(C(F)(F)F)c2)cn1` [nilotinib], in the test with MOLM-14 cells (Homo sapiens), the IC12.5 turned out to be 2.25 µM and the IC50 was 9 µM.

On to `C[C@@H](Oc1cc(-c2cnn(C3CCNCC3)c2)cnc1N)c1c(Cl)ccc(F)c1Cl` [crizotinib], for which, in the test with MOLM-14 cells (Homo sapiens), the IC12.5 was 0.45 µM and the IC50 turned out to be 1.8 µM.

Consider `Cc1ccc(NC(=O)c2ccc(CN3CCN(C)CC3)cc2)cc1Nc1nccc(-c2cccnc2)n1` [imatinib], for which the IC12.5 in the test with MOLM-14 cells (Homo sapiens) came to 2.5 µM.
